In one data set the target is mGluR4 (Homo sapiens, UniProt Q14833). Kind of data set: GloSensor cAMP biosensor assay, mGluR4 PAM and agonist activity. Type of data set: cell-based. Set-up: expressed in transfected cells. As to conditions: in presence of EC20 concentration of agonist (1 μM L-SOP); read-out: EC50, mGluR4 PAM activity. As for the experimental part:
Cell Culture. HEK-293 cells were maintained with complete Dulbecco's modified Eagle's medium (DMEM), which was composed of 10% fetal bovine serum (FBS), 2 mM L-glutamine, 100 units/mL penicillin G, 100 μg/mL streptomycin at 37° C. in the presence of 5% CO2. HEK-293 stable cell lines with tetracycline inducible expression of mGluR1, mGluR2, mGluR4, mGluR6 or mGluR8 were maintained with complete DMEM with Hygromycin B (100 μg/mL), Blasticidin (15 μg/mL) at 37° C. in the presence of 5% CO2.
cAMP assay. The Gi/o coupled receptors (mGluR2, mGluR3, mGluR4, mGluR6 and mGluR8) were tested using cAMP assay. Promega's split luciferase based GloSensor cAMP biosensor technology was used in determining Gi-GPCR mediated cAMP production in live cells. On the cells stably expressing mGluR2, mGluR3, mGluR4, mGluR6 or mGluR8, GloSensor cAMP DNA construct was transfected overnight. Cells were seeded into PLL coated 384-well white clear bottom cell culture plates with complete BME Buffer with Tetracycline (1 μg/mL) at a density of 20,000 cells for another 24 h. The cell medium was removed and then 20 μL of buffer was loaded. […] Luminescence was counted in a Trilux luminescence counter. Data were analyzed with Prizm 5.0 (GraphPad software).
Secondary assays—Dose-response assays. […] For each compound, the results from four replicates were averaged and then either EC50 or IC50 values were calculated by non-linear regression using the 4-parameter logistic equation. […]
In sum, the mGluR4 PAM activity was determined using Promega's split luciferase based GloSensor cAMP biosensor assay (refs. 41-42). mGluR4 is coupling to Gαi protein to inhibit adenylate cyclase, which converts ATP to cAMP, which plays an important role in many signal transduction pathways. […] The mGluR4 PAM activity of 15 was evaluated in presence of EC20 concentration of agonist (1 μM L-SOP) by measuring changes in intracellular cAMP concentration.

Data set [1] is described as follows: ex vivo biodistribution of [18F]15. The class given is in vivo, Sprague Dawley rats. As to conditions: rat, iv. As for the experimental part: Ex vivo Studies of Biodistribution. For biodistribution studies the normal male Sprague Dawley rats were anesthetized with isoflurane/nitrous oxide (1-1.5% isoflurane) to install catheter into the tail vain for administration of radioactivity ([^18F]15, 22±3 MBq, iv). Total of 15 rats in deep anesthesia (isoflurane 4% and cervical dislocation) were sacrificed in a group of three at five different time points (5, 10, 20, 30, and 60 min) after injection of [^18F]15. Major organs including lung, heart, liver, spleen, kidney, muscle, midbrain, cortex, cerebellum and blood were harvested to determine radioactivity. The tissue samples were weighted, and the radioactivity was measured with the standard samples of [^18F]15 using Wizard2 2480, Perkin Elmer, Calif. Radioactivity of the tissue samples was determined as percent of the injected activity per gram of the tissue.

Data set [2] in a line: PET imaging of [18F]15, baseline. Type of data set: in vivo, Sprague Dawley rats. As for the experimental part: PET Imaging of [^18F]15 in Rats. Altogether 24 normal male Sprague Dawley rats were used for the imaging studies comprising 15 baseline studies and 15 blocking studies. Rats were anaesthetized with isoflurane/nitrous oxide (1.0-1.5% isoflurane, with oxygen flow of 1-1.5 L/min), and catheter was installed into tail vein for the administration of [^18F]15. Dynamic volumetric PET data was acquired with a PET-CT scanner for 60 min (Triumph-II, Tri-Foil Imaging, Northridge, Calif.). The vital signals such as heart rate and respiration rate were monitored during scanning period. PET data acquisition was started immediately after administration of radioactivity with the dose range of 18-34 MBq depending on the size of the rat followed by CT imaging to obtain anatomical information and data for attenuation correction of PET data. PET data was processed by using maximum-likelihood expectation-maximization (MLEM) algorithm with 30 iterations to dynamic volumetric images, and corrected for uniformity, scatter, and attenuation. The CT data was processed by the modified Feldkamp algorithm using matrix volumes of 512×512×512 and pixel size of […]. Co-registration of CT and PET images and analysis of PET images were carried out using PMOD3.2 software (PMOD Technology, Zurich, Switzerland).

mGluR4, sequence (Q14833 33-912): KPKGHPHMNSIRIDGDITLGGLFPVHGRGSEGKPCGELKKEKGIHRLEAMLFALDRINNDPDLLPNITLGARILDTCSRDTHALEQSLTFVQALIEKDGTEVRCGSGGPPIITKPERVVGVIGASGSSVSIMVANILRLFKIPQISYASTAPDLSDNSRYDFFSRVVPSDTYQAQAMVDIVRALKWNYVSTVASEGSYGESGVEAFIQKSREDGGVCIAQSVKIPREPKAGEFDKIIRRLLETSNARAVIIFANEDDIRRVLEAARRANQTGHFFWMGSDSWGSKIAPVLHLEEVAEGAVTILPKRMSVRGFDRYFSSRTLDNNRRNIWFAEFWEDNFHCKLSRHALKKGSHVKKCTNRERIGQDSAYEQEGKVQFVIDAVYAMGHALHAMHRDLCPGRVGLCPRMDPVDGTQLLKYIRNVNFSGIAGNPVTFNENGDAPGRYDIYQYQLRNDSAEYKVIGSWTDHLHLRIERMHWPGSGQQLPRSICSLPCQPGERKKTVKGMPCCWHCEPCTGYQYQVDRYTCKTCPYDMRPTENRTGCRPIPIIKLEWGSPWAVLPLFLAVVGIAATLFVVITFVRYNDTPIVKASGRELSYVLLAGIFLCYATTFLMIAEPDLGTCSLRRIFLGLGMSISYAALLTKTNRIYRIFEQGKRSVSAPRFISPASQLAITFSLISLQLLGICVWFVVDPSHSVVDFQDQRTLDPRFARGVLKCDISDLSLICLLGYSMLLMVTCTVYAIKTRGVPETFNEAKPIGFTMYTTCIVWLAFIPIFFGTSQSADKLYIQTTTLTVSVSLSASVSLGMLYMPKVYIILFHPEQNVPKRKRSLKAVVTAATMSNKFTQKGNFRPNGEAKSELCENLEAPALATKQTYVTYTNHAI

Broadly, the EC50 is the midpoint of the concentration-response curve. Turning to `c1ccc(Nc2nc3c(s2)CCCc2[nH]ncc2-3)nc1` [Compound 11], the EC50 at mGluR4 was determined as 55 nM.
In data set [1] (at 10 min), `[2H]C([2H])([18F])Sc1cc(NC(=O)c2ccccn2)ccc1Cl` [[^18F]15] had an accumulation in brain of 0.41±0.18 % ID/g. Moreover, in data set [1] (at 20 min), the accumulation in heart was found to be 0.50±0.08 % ID/g, the accumulation in liver is reported as 1.33±0.12 % ID/g and the accumulation in lungs was determined as 0.58±0.17 % ID/g. Also, in data set [1] (at 30 min), the accumulation in kidneys is 0.93±0.57 % ID/g. For the same compound, the BBB crossing entry in data set [2] (PET, rat brain) is listed as “crosses BBB”. In addition, the “time of highest accumulation in the thalamus” value in data set [2] (after administration of the ligand) is recorded as “about 2 min”. Further, in data set [2] (time interval of 1-10 min after administering), the “maximum average uptake in the thalamus” value is 1.77±0.26 % ID/cc.

The values are drawn from patent US20220118117A1, “MODULATORS OF METABOTROPIC GLUTAMATE RECEPTOR 4” (The General Hospital Corporation, priority 2019, published 2022).
